In patent publication US20100256332A1, “GLP-1 Fusion Peptides, Their Production and Use” (BIOCOMPATIBLES UK LTD, priority 2007, published 2010):
Where no end group is shown, it is not given here.

Legend:
[1] = test system: type II diabetic mice (C57BUKs-Lepr db/db); test: In vivo bioactivity in type II diabetic mice; parameters: species or system mouse; conditions: 5 μg peptide s.c. twice a day, Day 2, 4, 7, 10, overnight fasted
Description: 11-week-old type II diabetic mice (C57BUKs-Lepr^db/db, Harlan) were treated with 5 μg peptide by subcutaneous injection twice a day at 9 a.m. and 5 p.m. (n=5 per group).
Blood glucose was measured before (day 0) and after treatment with GLP^CM peptides (Day 2, 4, 7, 10) at 10 a.m. after an overnight fastening period. Data were presented in relation to blood glucose levels measured at day 0.
Best results were obtained with recombinant SEQ ID No.:6 (CM1) and synthetic SEQ ID No.:8 (CM3). In FIG. 5 (y-axis) the relative effect of the treatment is shown. Blood glucose at day=0 was set to 1. Untreated animals undergo continuous increase in blood glucose level over time, whereas animals treated with inventive peptides display grosso modo a continuous decrease of the blood glucose level over time.

[2] = test system: diabetic C57BL/KsJ@Rj-db (db/db) mice; test: Dose-efficacy study in diabetic mice; type: in vivo, mouse; conditions: for fall in plasma glucose @1 h: 1 hour after single s.c. injection of 1.1-3.0 nmol peptide; for fall in plasma glucose @1 h / fall in plasma glucose @4 h: versus control; for fall in plasma glucose @4 h: 4 hours after single s.c. injection of 1.1-3.0 nmol peptide; for plasma glucose ED50: single s.c. dose, percentage decrease of blood glucose at 1h
Description: A sixth group was treated with saline only. 7 animals were treated per group. Blood glucose was determined from tail bleeds directly before, 1 hour and 4 hours after injection.
The results are shown in dose-response curves according to FIG. 8 (FIG. 8A (GLP-1), FIG. 8B (CM1), FIG. 8C(CM3) and FIG. 8D (CM3-ANA01)). For every test substance a graph was prepared with the percentage difference of the blood glucose in relation to the start value for the different concentrations. […] Both models are sigmoidal fit models suitable for dose response evaluation. For every peptide the plasma glucose ED50 values (single s.c. dose in μg/mouse) have been determined from the percentage decrease of blood glucose.
The fall in plasma glucose and the corresponding significance levels are given for the time period 1 hour (@1 h) and 4 hours (@4h) after peptide injection. Differences have been observed in the long-term efficacy of the peptides.

[3] = test system: C57BL/KsJ@Rj-db (db/db) mice; test: Long-term treatment of db/db mice; type: in vivo, mouse; conditions: for non fasted blood glucose level 1h after s.c. peptide injection, compared to control: tail bleed 1 hour after injection; for fasted blood glucose level 18h after peptide injection: 12-hour overnight fast, 18 hours after s.c. injection; for food consumption: weekly, 122 day treatment period, compared to the control
From the text: The regimen was continued for 18 weeks. From week 12 to 18 treatment was done twice a day in 6 of 12 animals per group. Various parameters of the mice were investigated, i.e. health status (1), body weight (2), food consumption (3), blood glucose (4), glucose tolerance test (5), insulin data (6), glycosylated hemoglobin (7), pathology (8), and restimulation of T cells (9). • Health status (1) was good in all groups, no side effects of the treatment have been seen. • Body weight (2) was lower in all treated groups after 18 weeks of treatment (FIG. 9). […] The relative body weight increase of 12 animals per group after a treatment of 122 days is plotted. […] Non-fasted blood glucose level (1 hour after peptide injection) is shown in FIG. 11A, i.e. the effect of a treatment with saline (A), CM1 (B), CM3-ANA01 (C) or exendin (D) on the non-fasted blood glucose levels. Blood glucose was measured from a tail bleed 1 hour after s.c. injection of saline (A) or the peptides CM1 (B), CM3-ANA01 (C) or exendin (D) in a concentration of 24 nmol/kg. Compared to control non fasted blood glucose level 1h after s.c. peptide injection is reduced to 55% in group B, 51% in group C and 60% in group D (FIG. 11B). The blood glucose decrease in the treated groups treated groups is highly significant (p<0.0001). Fasted blood glucose level (18 hours after peptide injection) are shown in FIG. 11C, i.e. the effect of a treatment with saline (A), CM1 (B), CM3-ANA01 (C) or exendin (D) on the fasted blood glucose levels. Blood glucose was measured from a tail bleed after a 12-hour overnight fast 18 hours after s.c. injection of the test substances. Fasted blood glucose level 18h after peptide injection is reduced in the CM1 and CM3-ANA01 group. • An i.p. glucose tolerance test (5) (IPGTT) was conducted after 8 weeks of treatment on mice of the groups A-D. […] Blood glucose has been further on determined 15, 30, 45, 60, 90 and 120 minutes after glucose injection. A significant normalization of glucose tolerance was shown in all treated groups (FIG. 12A). In FIG. 12A absolute blood glucose levels during an i.p. glucose tolerance test (IPGTT) after 8 weeks of treatment with saline (A), CM1 (B), CM3-ANA01 (C) or exendin (D) is shown (mean values of each group (n=12)). • Another presentation of the data presented by FIG. 12A of the blood glucose tolerance test is given in FIG. 12B. Relative blood glucose levels during an i.p. glucose tolerance test (IPGTT) after 8 weeks of treatment with saline (A), CM1 (B), CM3-ANA01 (C) or exendin (D) normalized on the starting blood glucose level (100%). • Insulin levels (6) were determined from mice after a 12 hour overnight fastening period. […] Directly after sampling blood samples have been treated with a protease inhibitor cocktail to avoid insulin degradation. The serum was analysed for insulin with the Insulin Mouse Ultrasensitive ELISA (Cat.# EIA-3440, DRG). Significance has been determine with Student's t-test. • Glycosylated hemoglobin (7) is formed by excess plasma glucose binding to hemoglobin in red blood cells (RBC). Since RBCs have a 120-day lifespan, measurements of the glycolylated hemoglobin gives a longer-term indication of glucose control and is seen as a better indicator than plasma glucose levels. Whole blood was collected from the retro-orbital sinus and analyzed with the Enzymatic HbA1c Test Kit (#DZ121A, Diazyme) to determine the glycosylated hemoglobin levels. […] The mean value of all animals per group (n=12) is given. […] Therefore, the spleen of 8 animals per group was explanted, T-cells isolated and restimulated with different concentrations of the corresponding test substance. Compared to non-treated controls no significant increase in peptide restimulated T-cell proliferation was found. […] The stimulation index (SI) was calculated as the quotient of the response in the presence of the respective peptide and the response in the absence of peptides. […]

BALB/c mice = test: Immunogenicity study in BALB/c mice
Description: The trial was done in BALB/c mice receiving 5 repeated injections (70 μg peptide/dose, i.v.) over 22d (n=5).
Spleens of the treated and control mice were explanted, T-cells isolated and stimulated with increasing amounts of antigene. Proliferative recall response is measured.

[4] = In vitro human plasma stability of GLP-1 CM peptides; conditions: 20 ng/ml peptide, 37° C., 3 hours, GLP-1 (Active) ELISA, versus native GLP-1(7-37)
From the text: Dipeptidylpeptidase activity of the plasma was inhibited by an DPP-IV inhibitor (#DPP4, Biotrend).

[5] = human, 1 μM, pH 7.8
From the text: (§1) Results are from triplicates in at least two independent experiments.

[6] = In vitro plasma stability, kinetic test method; conditions: 1 μM peptide, 10% human plasma, 37° C., 0-9 hours
From the text: as §1

[7] = 5 repeated injections, 70 μg peptide/dose, i.v., over 22d, BALB/c mice

Row | Substance | anti-hyperglycemia effect (blood glucose in relation to day 0) ([1]; listed as SEQ ID No.:6) | anti-hyperglycemia effect (blood glucose in relation to day 0) ([1]; listed as recombinant SEQ ID No.:6) | fall in plasma glucose @1 h [2] | fall in plasma glucose @4 h [2] | plasma glucose ED50 [2] | non fasted blood glucose level 1h after s.c. peptide injection, compared to control ([3]; 24 nmol/kg s.c.) | fasted blood glucose level 18h after peptide injection [3] | food consumption ([3]; p<0.001) | T-cell antibody response and antibody titer (BALB/c mice; [7]) | toxicity (BALB/c mice; [7]) | clinically relevant immunogenicity (BALB/c mice; immunogenicity study in mice) | stability in human plasma in vitro (active GLP) [4] | relative body weight increase ([3]; after a treatment of 122 days, 24 nmol/kg s.c., p<0.001) | active GLP-1 left after 9h plasma exposure, % of the 0 h value [5] | in vitro plasma stability, comparison in words [6]
1 | GLP-1 (7-37)-IP2-RR-GLP1(7-37) [CM1] | anti-hyperglycemia effect | Best results | 50% ± 14% @1 h | 0% @4 h | 0.61 μg/mouse | 55% | reduced | significantly lower | minimal | no toxicity | absence of any clinically relevant immunogenicity | significantly stabilized |  |  | 
2 | HAEGTFTSDVSSYLEGQAAKEFIAWLVKGRGAADFPEEVAIAEELG [CM3-ANA01] |  |  | 62% ± 12% @1 h | 18% ± 11% @4 h | 0.55 μg/mouse | 51% | reduced | significantly lower |  |  |  |  | significantly lower | 84% | higher plasma stability than CM3
3 | HAEGTFTSDVSSYLEGQAAKEFIAWLVKGRGRRDFPEEVAIAEELG [CM3, GLP-1(7-37)-IP2] |  |  |  |  |  |  |  |  |  |  |  | significantly stabilized |  |  | 
